{"source": "paper PMC3071873", "about": "(Journal of medicinal chemistry, 2010)", "key": {"human MAO B": {"target": "T1, human MAO B (Homo sapiens, UniProt P27338)", "T1 sequence (P27338 1-520)": "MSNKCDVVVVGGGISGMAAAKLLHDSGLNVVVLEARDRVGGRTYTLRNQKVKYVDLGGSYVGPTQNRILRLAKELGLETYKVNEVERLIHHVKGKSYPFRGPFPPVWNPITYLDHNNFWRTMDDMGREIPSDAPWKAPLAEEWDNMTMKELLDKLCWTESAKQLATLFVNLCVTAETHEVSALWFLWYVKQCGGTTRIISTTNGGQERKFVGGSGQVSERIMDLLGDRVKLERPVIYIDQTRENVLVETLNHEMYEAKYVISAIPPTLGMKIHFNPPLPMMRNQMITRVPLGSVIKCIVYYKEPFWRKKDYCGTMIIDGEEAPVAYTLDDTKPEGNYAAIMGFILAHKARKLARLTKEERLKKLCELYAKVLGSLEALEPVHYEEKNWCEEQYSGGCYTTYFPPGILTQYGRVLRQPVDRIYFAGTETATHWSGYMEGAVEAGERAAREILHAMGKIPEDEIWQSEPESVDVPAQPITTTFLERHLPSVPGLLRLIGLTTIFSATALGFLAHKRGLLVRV", "assay": "Inhibition of purified recombinant human MAO B", "format": "biochemical", "conditions": "versus safinamide (ref 12)"}, "[1]": {"target": "rat monoamine oxidase (MAO) B", "conditions": "weak inhibitor; cited from earlier work"}, "mouse MAO B": {"system": "mouse MAO B", "conditions": "membrane-bound mouse MAO B; cited from earlier work"}, "[2]": {"system": "toxic effect of 1-methyl-4-phenyl-tetrahydropyridine (MPTP)", "conditions": "mice; cited from earlier work"}, "[3]": {"conditions": "humans, daily dosage of 25 mg; cited from earlier work"}, "[4]": {"conditions": "cited from earlier work"}, "[5]": {"conditions": "storage in solution; oxidative or hydrolytic degradation; cited from earlier work"}}, "note": "Where “and” joins values, the source holds several entries; their conditions need not be identical. Equal entries are not always repeated."}
{"smiles": "NS(=O)(=O)Cc1noc2ccccc12", "note": "[Zonisamide, 1,2-benzisoxazole-3-methanesulfonamide]", "values": [{"measurement": "weaker Ki value with human MAO B compared to safinamide", "setting": "human MAO B", "value": "~ 6 fold"}, {"measurement": "Ki", "setting": "[1]", "value": 660, "unit": "µM"}, {"measurement": "IC50", "setting": "mouse MAO B", "value": 25, "unit": "µM"}, {"measurement": "effect on MPTP toxicity", "setting": "[2]", "value": "attenuates the toxic effect"}, {"measurement": "plasma (serum) concentration", "setting": "[3]", "value": "~ 0.6 μM and 0.6 μM"}, {"measurement": "brain tissue versus plasma concentrations", "setting": "[4]", "value": "higher in brain tissues"}, {"measurement": "stability of aged solutions", "setting": "[5]", "value": "lose inhibition potency on storage in solution"}]}
